Source: patent US12264185B2, “Stabilized BCL9 peptides for treatment of aberrant Wnt signaling” (WntRx Pharmaceuticals Inc., priority 2015, dated 2025)
Where “and” joins values, the source holds several entries; their conditions need not be identical. Equal values may be shown once. Read-outs that look alike come from different tables or passages of the source.

Columns and labels:
TNF-alpha/JNK = TNF-alpha/JNK transcription assay (AP1-bla ME-180 cell line); type: cell-based
Excerpt: In these assays, the trifluoroacetic salt form of WX-024 was used.

in vivo = conditions: female, balb/c, mouse, ip
[1] = Toxicology study, 14 days i.v., female balb/c mice; type: in vivo
Method: At the end of the study, the mice were sacrificed and various major organs were collected. The tissue samples were treated and processed as described in Example 5.5. […] The body weight of each moue was monitored throughout the study and the average body weight of each treatment group is shown in FIG. 30B. […] At the end of the study, blood from each mouse was also collected for serum chemistry and hematological analysis (complete blood cell count analysis).

Wnt/β-catenin signaling = test: GeneBLAzer beta-lactamase Wnt transcription reporter assay, LEF/TCF-bla HCT-116 cells; type: cell-based
Excerpt: ICG001 was used as a comparison. The GeneBLAzer uses CellSensor™ LEF/TCF-bla HCT-116 cells that contain a beta-lactamase (BLA) reporter gene under the control of the β-catenin/LEF/TCF response element stably integrated into HCT-116 cells, as shown in FIG. 5A. These cells constitutively express beta-lactamase and can be used to detect agonists and antagonists of the Wnt/β-catenin signaling pathway. The GeneBLAzer assay provides a ratiometric reporter response involving a two-color (blue/green) readout of stimulated and unstimulated cells.
LEF/TCF-bla HCT-116 cells were plated in assay medium (Invitrogen) on clear-bottom plates and incubated overnight at 37° C. […] Cells were next incubated with the Wnt agonist, mWnt3a (provided in the GeneBLAzer kit) for 5 hours at 37° C. Substrate mixture (containing LiveBLAzer™ B/G substrate that employs CCF4-AM, a FRET substrate for beta-lactamase) was added to the wells, and the plate was incubated for 2.5 hours at room temperature in the dark. Black-walled, clear-bottom, 384-well plates (Corning Costar) were used with scanning done with a Spectramax M2. Plates were scanned first (Scan 1 in the blue channel) with excitation filter 409/20 nm and emission filter 460/40 nm. Plates were then scanned (Scan 2 in the green channel) with excitation filer 409/20 nm and emission filter 530/30 nm.

[2] = Preliminary stability study of salt form; type: physicochemical; conditions: trifluroacetic acid salt form, 2-8° C. and room temperature, at least one month
CT26 cells [3] = test: CT26 syngeneic mouse model of colon cancer (Balb/c); type: in vivo, mice
Method: The syngeneic mouse model of colon cancer using CT26 was then assessed. Male Balb/c mice were injected subcutaneously in the right flank with 5×10^4 CT26 cells each at approximately 5 weeks of age. […] Eight mice were included in each treatment group.
The whole blood was taken from each mouse. Lymphocytes were purified from the blood samples by Ficoll, and the cells were stained with fluorescent anti-CD4 antibody. Data were measured by flow cytometry.
As described above, the whole blood was taken from each mouse. Lymphocytes were purified from blood by Ficoll, and the cells were stained with fluorescent anti-CD8 antibody. Data were measured by flow cytometry.
To further assess whether WX-024 is capable of modulating a tumor microenvironment, tumor and blood samples were collected in anticoagulation tubes at the end of the study. Single cells separation was performed and then cells were stained for FACS analysis. For cell surface staining, CD45-PerCP-Cy5, CD4-FITC, CD8-PE-Cy7, and CD25-PE were used. For intranuclear staining, cells were permeabilized overnight and then stained with Foxp3-APC for 60 minutes.
The in vivo efficacy of WX-035 in treating a cancer was assessed in a syngeneic mouse model, following the procedures described in Example 5.3. Trametinib, a known MEK inhibitor, was used as a comparison. Briefly, balb/c mice were inoculated with CT26 and treatment started when tumor volume reached to about 100 mm^3. The mice were then divided into three groups and began administered with a vehicle, 40 mg/kg WX-035, or 1 mg/kg trametinib for 7 consecutive days.
At the end of the study described in Example 9.2, a tumor sample from each mouse was collected to assess the effect of WX-035 in modulating T cell activation. The FACS analysis of each tumor sample was performed following the procedure described in Example 5. A shown in FIG. 36A, treatment with WX-035 reduced the total amount of CD45^+ cells. […] Likewise, Foxp3^+ CD25^+ T cells were reduced by WX-035 treatment (FIG. 36C). […] Furthermore, by increasing the ratio of cytotoxic T cells over regulatory T cells, WX-035 may induce a microenvironment that favors an immune reaction beneficial for tumor treatment. Of note, the samples collected from this experiment were also assessed for LGR5 expression.

CT26 cells [4] = test: cells
Method: CT26 cells were grown in F-bottom plates over 5 days. […] CellTiterGlo (Promega) cell viability assay. […] Doxorubicin is a known inhibitor of cell growth and was included as a control.

[5] = Pharmacokinetics in male ICR mice; conditions: mouse, plasma, 5 mg/kg
Method: The tail vein was used for i.v. injections. […] Following injections, blood samples were obtained via the retro-orbital vein at 5 min, 1, 2, 4, 6, 8, 12, and 24 hours postdose. Plasma was obtained from the blood samples following mixing with sodium heparin and centrifugation.
LC analysis was done using an Agilent 100 HPLC. MS analysis was done using an AB Sciex API 4000. Calibration standards were prepared by serial dilution.
The maximum observed concentration (Cmax), terminal half-life (T1/2), total body clearance (CL), volume of distribution (Vz), area under the curve from the time of dosing to the last measurable concentration (AUC0-t), area under the curve from the time of dosing extrapolated to infinity (AUC0-inf), and bioavailability were calculated using noncompartmental analysis modules in the FDA-certified pharmacokinetic program WinNonlin Professional v5.2 (Pharsight).
Briefly, the mice were administered 1 mg/kg or 5 mg/kg intravenously, or 5 mg/kg intraperitoneally. Blood samples were collected at 15 min, 1, 2, 3, 6, 8, 12, and 24 hours post administration.

[6] = 20 mg/kg, after 2 weeks of daily dosing

## CC[C@H](C)[C@@H]1NC(=O)[C@@](C)(NC(=O)[C@H](CCCNC(=N)N)NC(=O)[C@H](CC(C)C)NC(=O)[C@@H](NC(=O)[C@H](CCC(N)=O)NC(=O)[C@H](CC(C)C)NC(C)=O)[C@@H](C)O)CCCC=CCCC[C@@](C)(C(=O)N[C@@H](CC(C)C)C(=O)N[C@@H](Cc2ccc3ccccc3c2)C(N)=O)NC(=O)[C@H](CCCNC(=N)N)NC(=O)[C@H](CCC(N)=O)NC1=O [WX-024, LQTLRXaa1IQRXaa2L]
TNF-alpha/JNK; AP1-bla ME-180, TNF-alpha stimulation, trifluoroacetic salt form, read-out: IC50 (nM), TNP-alpha/JNK pathway
  IC50: > 1000 nM
TNF-alpha/JNK; Example 4.5, read-out: IC50, TNF-alpha/JNK transcription assay
  IC50: > 10000 nM
TNF-alpha/JNK; summary, Example 6, read-out: IC50, TNF-α/JNK reporter assay
  IC50: > 100 nM
In vivo; 10 mg/kg
  AUC(0-inf): 41.1 µg·h/mL
  AUC(0-t): 37.8 µg·h/mL
  Tmax: 2 h
In vivo; 15 mg/kg
  AUC(0-inf): 109 µg·h/mL
  AUC(0-t): 107 µg·h/mL
  Cmax: 8750 ng/mL
  Tmax: 3.33 h
In vivo; 20 mg/kg
  AUC(0-inf): 161 µg·h/mL
  AUC(0-t): 160 µg·h/mL
  Cmax: 13700 ng/mL
  Tmax: 4 h
[1]; 20 mg/kg i.v. daily
  blood cell count profile vs vehicle: did not differ significantly
[1]; 10, 15 or 20 mg/kg i.v. daily
  average body weight: stabilized and was maintained throughout the study
  food consumption: recovered to near baseline levels with continued treatment
Wnt/β-catenin signaling; LEF/TCF-bla HCT-116 cells, read-out: IC50, Wnt transcription
  IC50: 191 nM and ~200 nM
Wnt/β-catenin signaling; acetate salt form, read-out: IC50, Wnt transcription inhibition
  IC50: 292 nM
Wnt/β-catenin signaling; hydrochloric salt, read-out: IC50, Wnt transcription inhibition
  IC50: 313 nM
[2]
  stability: stable
CT26 cells [3]; 20 mg/kg i.p. daily, 14 days
  tumor volume over time compared to vehicle: substantially lower
CT26 cells [3]; 20 mg/kg i.p. daily, after 3 days of dosing
  tumor growth inhibition (TGI): 89.2%
CT26 cells [3]; 20 mg/kg i.p. daily, after 12 days of dosing
  tumor growth inhibition (TGI): 70.0%
CT26 cells [3]; 20 mg/kg, 14 days
  active β-catenin expression in tumors: capable of suppressing active β-catenin expression in tumors
CT26 cells [3]; [6]
  CD4+ T cell counts in blood: increase
  CD8+ T cell counts in blood: increase
CT26 cells [3]; 20 mg/kg, end of study
  regulatory T cells in CD4+ T cell populations in tumor: significantly reduced
CT26 cells [4]
  IC50: 1750 nM
[5]; ip
  bioavailability: 73.6%
[5]; iv
  Cmax: 47400 ng/mL and > 30 µM
